Laboratory results published in PMC4783263 (Molecular pharmaceutics, 2016).
In brackets after ≈: the same amount, converted by molar mass. Read-outs that look alike come from different tables or passages of the source. Blank lines part the entries; values can stand above or below the compound they belong to.

Key:
SK-OV-3 cells = details: read-out: IC50 on SK-OV-3 cells; ABZ formulated in ethanol; cited from earlier work
[1] = tested on: OVCAR-3 (human ovarian adenocarcinoma); details: 150 mg/kg of ABZ 3 times a week for 4 weeks through IP; cited from earlier work
glioblastoma multiforme = details: daily oral doses (50 and 150 mg/kg) of ABZ tablets mixed with 50% sesame oil; cited from earlier work
[2] = tested on: SKHEP-1 (human liver adenocarcinoma) xenografts; details: ABZ in sesame oil, xenografts on the flank of mice; cited from earlier work
[3] = mice, repeated oral dosing of 30–40 mg/kg/day for 4–90 days; cited from earlier work
[4] = parameters: species or system Swiss Webster mice; details: mouse, in vivo; for AUC / Cmax / tmax: 3.2 mg/kg
[5] = cited from earlier work
[6] = tested on: Salmonella typhimurium TA100; assay: Ames test; details: TA 100, −S9, 1.5 µg/plate
[7] = tested on: Salmonella typhimurium TA1535; assay: Ames test; details: TA 1535, −S9, 1.5 µg/plate
[8] = in vivo; cited from earlier work

SMILES: CCCSc1ccc2nc(NC(=O)OC)[nH]c2c1 [ABZ, Albendazole]
IC50 (SK-OV-3 cells): 3.88 µM
malignant ascites (in words) [1]: suppression of malignant ascites was observed
mouse survival (in words) (glioblastoma multiforme): moderate improvements in mouse survival
daily oral dose required to see an antitumor effect [2]: 300 mg/kg
toxicity (in words) [3]: no significant signs of toxicity

Absolute Bioavailability [4]: 81%
AUC ([4]; ip): 2380 ng·h/mL
Cmax ([4]; ip): 410 ± 70 ng/mL
tmax ([4]; ip): 2 h
AUC ([4]; iv): 2940 ng·h/mL
Cmax ([4]; iv): 500 ± 90 ng/mL
tmax ([4]; iv): 2 h
SMILES: CCCS(=O)(=O)c1ccc2nc(NC(=O)OC)[nH]c2c1 [ABZSO2, Albendazole sulfone]

SMILES: O=C1N2CN3C(=O)N4CN5C(=O)N6CN7C(=O)N8CN9C(=O)N%10CN%11C(=O)N%12CN%13C(=O)N%14CN1C1C2N2CN%15C(=O)N(CN%16C(=O)N(CN%17C(=O)N(CN%18C(=O)N(CN%19C(=O)N(CN%20C(=O)N(CN1C2=O)C%14C%13%20)C%12C%11%19)C%10C9%18)C8C7%17)C6C5%16)C4C3%15 (stereo not shown) [CB[7]]
solubility in pure water ([5]; reported by Kim): 20 to 30 mM
solubility in pure water ([5]; reported by Nau): 5 mM (≈ 5.81 mg/mL)

SMILES: [N-]=[N+]=[N-].[Na+] [Sodium azide, Sodium Azide, reference compound]
revertant colonies, positive control [6]: Sodium azide 167 ± 34 colonies
revertant colonies, positive control ([6]; listed as sodium azide): 167 colonies
revertant colonies, positive control [7]: Sodium azide 232 ± 6 colonies
revertant colonies, positive control ([7]; listed as sodium azide): 232 colonies

SMILES: O=C(O)CCSC[C@H]1O[C@@H]2O[C@H]3[C@H](O)[C@@H](O)[C@@H](O[C@H]4[C@H](O)[C@@H](O)[C@@H](O[C@H]5[C@H](O)[C@@H](O)[C@@H](O[C@H]6[C@H](O)[C@@H](O)[C@@H](O[C@H]7[C@H](O)[C@@H](O)[C@@H](O[C@H]8[C@H](O)[C@@H](O)[C@@H](O[C@H]9[C@H](O)[C@@H](O)[C@@H](O[C@H]1[C@H](O)[C@H]2O)O[C@@H]9CSCCC(=O)O)O[C@@H]8CSCCC(=O)O)O[C@@H]7CSCCC(=O)O)O[C@@H]6CSCCC(=O)O)O[C@@H]5CSCCC(=O)O)O[C@@H]4CSCCC(=O)O)O[C@@H]3CSCCC(=O)O [sugammadex]
effect on QT interval (in words) [8]: no relevant effects of the compound on QT interval
